# Data as given in article PMC8213057, “Targeting ALK2: An Open Science Approach to Developing Therapeutics for the Treatment of Diffuse Intrinsic Pontine Glioma” (Journal of Medicinal Chemistry, 2020).
# Experiments:
# [1] = biological target: T1, TAK1 (Homo sapiens, UniProt O43318); settings: 1 μM; Run 1, Run 2
# T1 sequence (O43318 1-303 limits assumed): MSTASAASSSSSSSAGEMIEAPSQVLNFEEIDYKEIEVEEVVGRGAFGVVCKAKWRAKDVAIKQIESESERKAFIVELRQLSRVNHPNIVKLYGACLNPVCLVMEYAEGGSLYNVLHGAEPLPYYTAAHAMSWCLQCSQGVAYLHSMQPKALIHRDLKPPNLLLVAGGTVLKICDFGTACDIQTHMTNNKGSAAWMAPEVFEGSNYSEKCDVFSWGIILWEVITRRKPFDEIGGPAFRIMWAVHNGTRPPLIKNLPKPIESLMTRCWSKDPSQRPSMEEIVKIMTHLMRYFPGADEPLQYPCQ
# [2] = biological target: TYK1/LTK (Homo sapiens, UniProt P29376); settings: 1 μM; Run 1, Run 2
# Sequence of TYK1/LTK (P29376 17-864): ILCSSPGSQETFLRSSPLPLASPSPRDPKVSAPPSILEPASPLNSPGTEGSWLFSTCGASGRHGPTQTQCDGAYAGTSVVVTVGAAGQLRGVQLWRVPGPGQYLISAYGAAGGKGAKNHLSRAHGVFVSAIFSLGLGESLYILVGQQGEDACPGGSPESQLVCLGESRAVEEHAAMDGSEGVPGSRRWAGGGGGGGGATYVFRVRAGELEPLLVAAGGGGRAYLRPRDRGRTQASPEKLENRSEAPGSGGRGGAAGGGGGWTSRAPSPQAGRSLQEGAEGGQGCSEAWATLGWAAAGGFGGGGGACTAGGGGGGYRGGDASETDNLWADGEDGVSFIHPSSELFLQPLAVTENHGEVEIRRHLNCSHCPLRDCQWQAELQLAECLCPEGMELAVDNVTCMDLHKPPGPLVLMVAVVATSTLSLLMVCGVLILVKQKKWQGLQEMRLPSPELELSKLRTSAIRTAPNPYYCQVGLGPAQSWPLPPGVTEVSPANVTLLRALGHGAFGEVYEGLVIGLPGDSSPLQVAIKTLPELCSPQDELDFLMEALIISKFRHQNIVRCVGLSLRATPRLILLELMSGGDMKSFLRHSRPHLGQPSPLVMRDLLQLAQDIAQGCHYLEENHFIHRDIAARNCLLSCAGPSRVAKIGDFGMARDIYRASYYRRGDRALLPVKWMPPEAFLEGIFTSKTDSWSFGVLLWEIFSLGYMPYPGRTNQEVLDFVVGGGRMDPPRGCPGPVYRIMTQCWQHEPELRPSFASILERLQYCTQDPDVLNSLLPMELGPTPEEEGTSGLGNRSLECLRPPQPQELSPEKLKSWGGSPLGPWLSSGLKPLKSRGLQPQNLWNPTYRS
# [3] = biological target: T2, BRSK1 (Homo sapiens, UniProt Q8TDC3); settings: 1 μM; Run 1, Run 2
# T2 sequence (Q8TDC3 1-778): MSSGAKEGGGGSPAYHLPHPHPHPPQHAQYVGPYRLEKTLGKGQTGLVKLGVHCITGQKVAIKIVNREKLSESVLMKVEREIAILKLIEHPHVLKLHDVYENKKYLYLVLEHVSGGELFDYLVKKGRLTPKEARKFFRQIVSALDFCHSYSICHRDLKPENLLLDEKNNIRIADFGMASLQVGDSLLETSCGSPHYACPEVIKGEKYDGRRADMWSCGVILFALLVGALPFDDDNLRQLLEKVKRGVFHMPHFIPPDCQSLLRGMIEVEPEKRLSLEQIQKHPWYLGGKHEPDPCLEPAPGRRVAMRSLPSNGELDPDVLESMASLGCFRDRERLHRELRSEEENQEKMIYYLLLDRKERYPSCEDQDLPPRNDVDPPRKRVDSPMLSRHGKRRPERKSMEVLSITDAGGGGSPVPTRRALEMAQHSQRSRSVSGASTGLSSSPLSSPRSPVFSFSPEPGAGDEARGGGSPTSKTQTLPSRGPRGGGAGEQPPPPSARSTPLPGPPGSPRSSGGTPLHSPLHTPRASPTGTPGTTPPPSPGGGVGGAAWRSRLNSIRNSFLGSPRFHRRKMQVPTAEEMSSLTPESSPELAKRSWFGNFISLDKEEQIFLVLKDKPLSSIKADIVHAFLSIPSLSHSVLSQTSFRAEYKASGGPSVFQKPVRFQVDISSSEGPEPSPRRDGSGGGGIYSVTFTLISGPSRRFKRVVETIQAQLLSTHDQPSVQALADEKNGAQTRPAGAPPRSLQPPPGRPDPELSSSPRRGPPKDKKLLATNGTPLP
# [4] = biological target: JNK3 (Homo sapiens, UniProt P53779); settings: 1 μM; Run 1, Run 2
# Sequence of JNK3 (P53779 whole entry): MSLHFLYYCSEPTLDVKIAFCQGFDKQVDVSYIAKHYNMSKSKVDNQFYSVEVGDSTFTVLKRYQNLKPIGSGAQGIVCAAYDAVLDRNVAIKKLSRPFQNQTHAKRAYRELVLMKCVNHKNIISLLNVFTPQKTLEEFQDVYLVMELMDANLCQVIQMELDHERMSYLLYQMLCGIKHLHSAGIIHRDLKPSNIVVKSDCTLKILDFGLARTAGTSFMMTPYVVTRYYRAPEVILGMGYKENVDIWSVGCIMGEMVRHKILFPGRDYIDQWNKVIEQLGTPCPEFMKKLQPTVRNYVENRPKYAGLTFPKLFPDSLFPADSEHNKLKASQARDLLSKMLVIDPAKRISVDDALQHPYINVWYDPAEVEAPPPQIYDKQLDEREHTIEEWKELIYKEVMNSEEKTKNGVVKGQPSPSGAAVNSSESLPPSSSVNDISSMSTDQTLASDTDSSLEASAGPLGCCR
# [5] = biological target: FLT4/VEGFR3 (Homo sapiens, UniProt P35916); assay: biochemical; settings: read-out: % enzyme activity, 1 μM; Run 1, Run 2
# Sequence of FLT4/VEGFR3 (P35916 25-1363): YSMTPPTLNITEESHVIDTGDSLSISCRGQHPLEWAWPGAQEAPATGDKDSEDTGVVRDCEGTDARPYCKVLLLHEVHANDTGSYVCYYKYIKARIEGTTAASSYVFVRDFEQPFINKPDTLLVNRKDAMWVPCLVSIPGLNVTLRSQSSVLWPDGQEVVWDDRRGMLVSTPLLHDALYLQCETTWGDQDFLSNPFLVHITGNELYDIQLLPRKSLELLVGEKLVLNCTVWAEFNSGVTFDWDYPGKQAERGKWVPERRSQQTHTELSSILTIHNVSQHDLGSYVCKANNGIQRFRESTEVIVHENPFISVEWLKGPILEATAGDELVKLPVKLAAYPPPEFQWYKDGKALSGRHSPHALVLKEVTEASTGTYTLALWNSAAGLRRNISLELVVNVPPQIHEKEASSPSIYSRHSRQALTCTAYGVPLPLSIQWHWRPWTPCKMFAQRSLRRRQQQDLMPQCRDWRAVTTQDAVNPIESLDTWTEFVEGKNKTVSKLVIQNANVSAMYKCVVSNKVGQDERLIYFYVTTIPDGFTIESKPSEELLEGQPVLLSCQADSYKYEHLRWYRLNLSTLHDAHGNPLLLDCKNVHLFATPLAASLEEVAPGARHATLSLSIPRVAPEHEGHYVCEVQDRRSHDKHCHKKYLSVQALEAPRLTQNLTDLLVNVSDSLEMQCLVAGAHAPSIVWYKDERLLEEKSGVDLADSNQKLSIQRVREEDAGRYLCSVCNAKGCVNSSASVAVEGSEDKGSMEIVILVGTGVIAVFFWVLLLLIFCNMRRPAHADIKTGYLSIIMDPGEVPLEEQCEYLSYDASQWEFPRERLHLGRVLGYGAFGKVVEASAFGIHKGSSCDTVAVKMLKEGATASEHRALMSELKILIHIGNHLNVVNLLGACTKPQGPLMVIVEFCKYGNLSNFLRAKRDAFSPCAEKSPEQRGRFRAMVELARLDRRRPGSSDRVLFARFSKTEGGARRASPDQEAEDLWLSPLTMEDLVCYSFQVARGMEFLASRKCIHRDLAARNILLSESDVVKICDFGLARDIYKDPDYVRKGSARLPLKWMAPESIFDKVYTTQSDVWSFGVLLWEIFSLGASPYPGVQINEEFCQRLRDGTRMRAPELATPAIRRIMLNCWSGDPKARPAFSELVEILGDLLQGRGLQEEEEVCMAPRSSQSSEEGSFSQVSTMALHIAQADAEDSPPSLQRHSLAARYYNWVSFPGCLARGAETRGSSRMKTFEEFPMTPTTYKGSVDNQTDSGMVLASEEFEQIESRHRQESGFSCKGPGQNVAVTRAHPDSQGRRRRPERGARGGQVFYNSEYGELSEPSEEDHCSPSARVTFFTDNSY
# [6] = biological target: T3, KSR1 (Homo sapiens, UniProt Q8IVT5); settings: 1 μM; Run 1, Run 2
# T3 sequence (Q8IVT5 1-923): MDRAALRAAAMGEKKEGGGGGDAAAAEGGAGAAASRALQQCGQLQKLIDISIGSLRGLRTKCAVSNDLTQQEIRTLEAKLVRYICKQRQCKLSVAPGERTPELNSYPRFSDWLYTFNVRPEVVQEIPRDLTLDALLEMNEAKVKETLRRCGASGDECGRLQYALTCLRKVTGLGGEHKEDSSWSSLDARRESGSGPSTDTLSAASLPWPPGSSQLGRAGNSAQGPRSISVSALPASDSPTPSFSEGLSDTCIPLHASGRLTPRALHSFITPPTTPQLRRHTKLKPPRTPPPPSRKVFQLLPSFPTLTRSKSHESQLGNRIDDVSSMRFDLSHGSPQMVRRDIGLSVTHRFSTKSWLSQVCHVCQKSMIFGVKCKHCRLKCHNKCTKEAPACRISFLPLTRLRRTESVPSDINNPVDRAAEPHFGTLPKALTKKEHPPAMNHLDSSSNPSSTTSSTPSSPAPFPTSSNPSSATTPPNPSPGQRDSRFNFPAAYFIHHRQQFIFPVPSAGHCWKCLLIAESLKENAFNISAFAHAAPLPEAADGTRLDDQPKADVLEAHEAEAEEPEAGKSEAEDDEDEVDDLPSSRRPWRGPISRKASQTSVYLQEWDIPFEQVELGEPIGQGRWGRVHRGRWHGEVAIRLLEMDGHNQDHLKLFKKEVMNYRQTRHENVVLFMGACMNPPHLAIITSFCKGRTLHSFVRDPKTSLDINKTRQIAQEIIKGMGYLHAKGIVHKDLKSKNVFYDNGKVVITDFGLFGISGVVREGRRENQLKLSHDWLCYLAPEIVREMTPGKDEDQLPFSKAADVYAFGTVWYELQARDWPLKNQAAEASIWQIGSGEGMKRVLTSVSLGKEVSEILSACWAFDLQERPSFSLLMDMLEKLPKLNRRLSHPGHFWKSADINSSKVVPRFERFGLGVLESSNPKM
SMILES,% enzyme activity [1],% enzyme activity [2],% enzyme activity [3],% enzyme activity [4],remaining activity at 1 µM [5],% enzyme activity [6]
"COc1cc(-c2cncc(-c3ccc(N4CCN(C)CC4)cc3)c2C)cc(F)c1C(N)=O [Compound 26a, 2-Fluoro-6-methoxy-4-(4-methyl-5-(4-(4-methylpiperazin-1-yl)phenyl)pyridin-3-yl)benzamide]",97.44%,99.76%,83.89%,93.66%,98.4%,93.83%
"COc1cc(-c2cncc(-c3ccc(N4C[C@@H](C)N(C)[C@@H](C)C4)cc3)c2C)cc(F)c1C(N)=O [Compound 26c, 2-Fluoro-6-methoxy-4-(4-methyl-5-(4-((3R,5S)-3,4,5-trimethylpiperazin-1-yl)phenyl)pyridin-3-yl)benzamide]",98.46%,99.99%,78.18%,100.92%,97.1%,95.91%
